Here are results for 48 compounds from patent publication US8957062B2, “Substituted cyclopropyl compounds, compositions containing such compounds and methods of treatment” (Merck Sharp & Dohme Corp., priority 2011, dated 2015).

Each structure is given as a SMILES string.

Tested on in the first data set: not given
Assay: not given
Settings: not given
In the case of `COCc1noc(N2CCC([C@H]3C[C@H]3CCOc3ccc(S(C)(=O)=O)cn3)CC2)n1` [Example 208, 3-(methoxymethyl)-5-(4-((1R,2S)-2-(2-(5-(methylsulfonyl)pyridin-2-yloxy)ethyl)cyclopropyl)piperidin-1-yl)-1,2,4-oxadiazole], the melting point – broadly, the temperature of the solid-liquid transition – lay in the range of 68 to 70 °C.

The target in a further data set is T1, human GPR119 (Homo sapiens, UniProt Q8TDV5).
T1 sequence (Q8TDV5 1-308 limits assumed): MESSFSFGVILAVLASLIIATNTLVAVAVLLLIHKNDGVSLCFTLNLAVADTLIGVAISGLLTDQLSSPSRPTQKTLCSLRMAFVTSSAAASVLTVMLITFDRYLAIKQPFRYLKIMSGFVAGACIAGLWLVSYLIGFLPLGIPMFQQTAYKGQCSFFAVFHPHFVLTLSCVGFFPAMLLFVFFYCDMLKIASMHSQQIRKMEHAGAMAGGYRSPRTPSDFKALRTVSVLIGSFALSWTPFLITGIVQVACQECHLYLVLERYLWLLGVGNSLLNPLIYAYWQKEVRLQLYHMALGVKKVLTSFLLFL
Briefly: Measurement of GPR119 signaling (cAMP assay) in cells stably transfected with human GPR119. Conditions: cAMP stimulation; read-out: GPR119 HumC EC50. It counts as cell-based. (In general: Changes in cAMP serve as a functional read-out for many G protein-coupled receptors.)
Regarding `CC(C)c1noc(N2CCC([C@H]3C[C@H]3CCOc3cc(F)c(CC(=O)N4CC(F)C4)c(F)c3)CC2)n1` [Example 110], the concentration giving a half-maximal response (EC50) (as a rule, the concentration that produces a half-maximal response) amounted to 0.12 nM. For the compound `CC1(O)CN(C(=O)Cc2ccc(OCC[C@@H]3C[C@@H]3C3CCN(C(=O)OC4(C)CC4)CC3)cc2F)C1` [Example 64], the EC50 stood at 9.5 nM. On the same count and under the same terms, then `COCc1noc(N2CCC([C@H]3C[C@H]3CCOc3ccc(CC(=O)N(C)C)c(C)c3)CC2)n1` [Example 107], with 5.2 nM; and `CC1(OC(=O)N2CCC([C@H]3C[C@H]3CCOc3ccc(CC(=O)N4CCOCC4)c(F)c3)CC2)CC1` [Example 67], with 8.5 nM. With `CC(C)c1noc(N2CCC([C@H]3C[C@H]3CCOc3ccc(CC(=O)N4CCC4)c(Cl)c3)CC2)n1` [Example 103], the concentration giving a half-maximal response (EC50) came to 0.58 nM. On the same count and under the same terms, then `CC(C)c1noc(N2CCC([C@H]3C[C@H]3CCOc3ccc(CC(=O)N4CCC4)c(C#N)c3)CC2)n1` [Example 105], with 2 nM; and `O=C(Cc1ccc(OCC[C@@H]2C[C@@H]2C2CCN(C(=O)OC3CCC3)CC2)cc1F)N1CCC1` [Example 71], with 1.4 nM.

The data set is the same for the next values; noted with them: stated in the example text; cAMP stimulation, human GPR119; read-out: GPR119 Human EC50.
Turning to `COCc1noc(N2CCC([C@H]3C[C@H]3CCOc3ccc(S(C)(=O)=O)cn3)CC2)n1` [Example 208, 3-(methoxymethyl)-5-(4-((1R,2S)-2-(2-(5-(methylsulfonyl)pyridin-2-yloxy)ethyl)cyclopropyl)piperidin-1-yl)-1,2,4-oxadiazole], the concentration for a half-maximal effect (EC50) was determined as 7 nM.

For the compound `CC(C)OC(=O)N1CCC([C@H]2C[C@H]2CCOc2cc(F)c(C(=O)C3CC3)c(F)c2)CC1` [Example 51], the EC50 came out at 0.8 nM.

For the compound `CC(C)c1noc(N2CCC([C@H]3C[C@H]3CCOc3cc(F)c(CC(=O)N4CC(O)C4)c(F)c3)CC2)n1` [Example 108, 1-[(2,6-difluoro-4-{2-[(1S,2R)-2-{1-[3-(1-methylethyl)-1,2,4-oxadiazol-5-yl]piperidin-4-yl}cyclopropyl]ethoxy}phenyl)acetyl]azetidin-3-ol], the EC50 turned out to be 0.96 nM.

Still in this data set, the particulars now being: table column; cAMP stimulation, human GPR119; read-out: GPR119 Human EC50.
For the compound `CC1(OC(=O)N2CCC([C@H]3C[C@H]3CCOc3ccc(S(C)(=O)=O)cn3)CC2)CCC1` [Example 21], the 50% effective concentration (EC50) was found to be 0.6 nM. On the same count and under the same terms, then `CC(C)c1noc(N2CCC([C@H]3C[C@H]3CCOc3ccc(CC(=O)N4C[C@@H](F)[C@H](F)C4)cc3)CC2)n1` [Example 127], with 1.1 nM; and `CC(C)(C)OC(=O)N1CCC([C@H]2C[C@H]2CCOc2ccc(-n3cnnn3)cc2)CC1` [Example 5], with 7 nM; and `Cc1nc2c([nH]1)CN(C(=O)Cc1ccc(OCC[C@@H]3C[C@@H]3C3CCN(c4nc(C(C)C)no4)CC3)cc1F)C2` [Example 192], with 4.2 nM. Still for that read-out and setting: then `CS(=O)(=O)c1ccc(OCC[C@@H]2C[C@@H]2C2CCN(c3nc(COCC(F)(F)F)no3)CC2)nc1` [Example 217], with 7.8 nM; and `CCS(=O)(=O)c1ccc(OCC[C@@H]2C[C@@H]2C2CCN(C(=O)OC3(C)CC3)CC2)nc1` [Example 27], with 0.9 nM; and `O=C(c1c(F)cc(OCC[C@@H]2C[C@@H]2C2CCN(C(=O)OCc3ccccc3)CC2)cc1F)C1CC1` [Example 53], with 18 nM. Still for that read-out and setting: then `COCCc1noc(N2CCC([C@H]3C[C@H]3CCOc3ncc(-n4cnnn4)cc3C)CC2)n1` [Example 228], with 2 nM; and `CCOC(=O)N1CCC([C@H]2C[C@H]2CCOc2ccc(S(C)(=O)=O)cn2)CC1` [Example 20], with 22 nM. As for `CCOCc1noc(N2CCC([C@H]3C[C@H]3CCOc3ccc(S(C)(=O)=O)cn3)CC2)n1` [Example 218], the EC50 came out at 14 nM. The same measure, in the same setting: then `CC(C)c1noc(N2CCC([C@H]3C[C@H]3CCOc3ccc(Cc4nncs4)c(F)c3)CC2)n1` [Example 257], with 1.4 nM.

As to `CCOC(=O)N1CCC([C@H]2C[C@H]2CCOc2cc(C#N)nc(C)n2)CC1` [Example 45], the EC50 stood at 3.6 nM. As to `CCCC(=O)c1c(F)cc(OCC[C@@H]2C[C@@H]2C2CCN(c3nc(C(C)C)no3)CC2)cc1F` [Example 121], the 50% effective concentration (EC50) was 0.1 nM. For the compound `CS(=O)(=O)c1ccc(OCC[C@@H]2C[C@@H]2C2CCN(C(=O)CC3CCC3)CC2)nc1` [Example 87], the half-maximal effective concentration (EC50) was 13 nM.

Consider `Cc1cc(CC(=O)N2CC(C)(O)C2)cnc1OCC[C@@H]1C[C@@H]1C1CCN(c2nc(C(C)C)no2)CC1` [Example 262], for which the EC50 came to 12 nM. The same measure, in the same setting: to `COC(C)c1noc(N2CCC([C@H]3C[C@H]3CCOc3ncc(-n4cnnn4)cc3C)CC2)n1` (stereo partly shown) [Example 227] belongs 0.9 nM.

In the case of `CC(C)c1noc(N2CCC([C@H]3C[C@H]3CCOc3ccc(CC(=O)N4CCC(C)(O)C4)c(F)c3)CC2)n1` (stereo partly shown) [Example 174], the EC50 was determined as 11.4 nM. The same measure, in the same setting: then `CC1(OC(=O)N2CCC([C@H]3C[C@H]3CCOc3ccc(S(=O)(=O)C4CC4)c(F)c3)CC2)CC1` [Example 43], with 1 nM. On the same count and under the same terms, then `CS(=O)(=O)c1ccc(OCC[C@@H]2C[C@@H]2C2CCN(c3noc(C4CCCC4)n3)CC2)nc1` [Example 242], with 11.6 nM. On the same count and under the same terms, then `CC(C)c1noc(N2CCC([C@H]3C[C@H]3CCOc3cc(F)c(C(=O)NC(C)(C)CO)c(F)c3)CC2)n1` [Example 122], with 10 nM.

`CC(C)c1noc(N2CCC([C@H]3C[C@H]3CCOc3ccc(CC(=O)N(C)Cc4cncs4)c(F)c3)CC2)n1` [Example 171]: the half-maximal effective concentration (EC50) was found to be 1.5 nM. Still for that read-out and setting: then `CCCOC(=O)N1CCC([C@H]2C[C@H]2CCOc2ccc(-n3cnnn3)cc2)CC1` [Example 7], with 0.8 nM; and `CC(C)c1noc(N2CCC([C@H]3C[C@H]3CCOc3ccc(CC(=O)N(C)Cc4cc[nH]n4)c(F)c3)CC2)n1` [Example 167], with 3.1 nM.

As for `CC(C)c1noc(N2CCC([C@H]3C[C@H]3CCOc3ccc(CC(=O)N(C)C4CCCC4)c(F)c3)CC2)n1` [Example 154], the EC50 was 5 nM. Regarding `COCc1noc(N2CCC([C@H]3C[C@H]3CCOc3ncc(-n4cnnn4)cc3C)CC2)n1` [Example 226], the EC50 is 2.3 nM. Still for that read-out and setting: to `CC(C)c1noc(N2CCC([C@H]3C[C@H]3CCOc3ccc(CC(=O)NC4CC4(F)F)c(F)c3)CC2)n1` (stereo partly shown) [Example 152] belongs 6.3 nM; to `CS(=O)(=O)c1ccc(OCC[C@@H]2C[C@@H]2C2CCN(C(=O)OCC3CCC3)CC2)nc1` [Example 22], 5 nM; to `CCOCc1nc(N2CCC([C@H]3C[C@H]3CCOc3ccc(S(C)(=O)=O)cn3)CC2)no1` [Example 246], 7.9 nM. Consider `COCc1noc(N2CCC([C@H]3C[C@H]3CCOc3ccc(CC(=O)N4CC(F)(F)C4)c(F)c3)CC2)n1` [Example 200], for which the EC50 amounted to 1.2 nM.

Take `CC(C)OC(=O)N1CCC([C@H]2C[C@H]2CCOc2ccc(-n3cnnn3)cc2)CC1` [Example 11]: the concentration for a half-maximal effect (EC50) is 1.5 nM.

For the compound `CC(C)c1noc(N2CCC([C@H]3C[C@H]3CCOc3ccc(C(=O)C4CC4)c(F)c3)CC2)n1` [Example 117], the EC50 was determined as 0.6 nM. Same read-out and setting: then `CC1CC1c1nc(N2CCC([C@H]3C[C@H]3CCOc3ccc(S(C)(=O)=O)cn3)CC2)no1` (stereo partly shown) [Example 239], with 7 nM; and `CC(C)c1noc(N2CCC([C@H]3C[C@H]3CCOc3ccc(CC(=O)NC4CCC(F)(F)C4)c(F)c3)CC2)n1` (stereo partly shown) [Example 191], with 2.8 nM; and `CS(=O)(=O)c1ccc(OCC[C@@H]2C[C@@H]2C2CCN(C(=O)CC3CCC3)CC2)cc1F` [Example 92], with 10 nM. Still for that read-out and setting: then `CC(C)c1noc(N2CCC([C@H]3C[C@H]3CCOc3ccc(CC(=O)N(C)C)c(F)c3)CC2)n1` [Example 143], with 0.94 nM; and `CC(C)OC(=O)N1CCC([C@H]2C[C@H]2CCOc2ccc(S(C)(=O)=O)cn2)CC1` [Example 16], with 46 nM; and `CC1(c2nc(N3CCC([C@H]4C[C@H]4CCOc4ccc(S(C)(=O)=O)cn4)CC3)no2)CC1` [Example 240], with 5.2 nM.

In the case of `CC(C)(C)c1nc(N2CCC([C@H]3C[C@H]3CCOc3ccc(S(C)(=O)=O)cn3)CC2)no1` [Example 236], the concentration for a half-maximal effect (EC50) is 1.7 nM.
